In the assay the target is purified human Factor XIIIa (Homo sapiens, UniProt P00488). The settings on record: 10 mM EDTA added in the presence of Factor XIIIa 30 U/ml; fibrinogen 100 μg/ml, Lp(a) 500 μg/ml, 37° C., 30 minutes to 6 hours.

We go through 1 molecule from US20040105861A1, “Use of factor XIIIa inhibitors to treat atherosclerosis” (SmithKline Beecham Corporation, priority 1997, published 2004).

Molecules are shown by their SMILES.

Chain of purified human Factor XIIIa (P00488 39-732 limits assumed): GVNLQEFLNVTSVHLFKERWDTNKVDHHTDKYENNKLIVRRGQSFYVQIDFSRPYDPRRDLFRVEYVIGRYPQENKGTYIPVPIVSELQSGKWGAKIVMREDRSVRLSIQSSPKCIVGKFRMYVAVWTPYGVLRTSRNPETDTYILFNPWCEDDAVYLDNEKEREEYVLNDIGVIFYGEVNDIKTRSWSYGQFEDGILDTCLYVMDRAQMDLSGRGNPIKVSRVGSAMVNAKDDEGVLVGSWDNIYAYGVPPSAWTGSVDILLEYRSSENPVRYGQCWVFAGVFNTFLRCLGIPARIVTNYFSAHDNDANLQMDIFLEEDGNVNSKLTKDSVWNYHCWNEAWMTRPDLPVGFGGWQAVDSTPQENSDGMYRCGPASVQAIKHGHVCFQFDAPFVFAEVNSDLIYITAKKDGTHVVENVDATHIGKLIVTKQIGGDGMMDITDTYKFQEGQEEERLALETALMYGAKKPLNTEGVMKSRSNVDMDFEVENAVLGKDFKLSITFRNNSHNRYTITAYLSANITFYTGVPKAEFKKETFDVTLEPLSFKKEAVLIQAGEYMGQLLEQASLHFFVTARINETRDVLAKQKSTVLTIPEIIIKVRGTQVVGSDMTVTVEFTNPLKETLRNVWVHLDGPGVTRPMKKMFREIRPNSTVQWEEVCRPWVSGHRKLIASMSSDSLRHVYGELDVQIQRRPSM
Description: To determine if Factor XIIIa crosslinks Lp(a) with fibrinogen, Factor XIIIa was incubated with Lp(a) and fibrinogen in solution and then analyzed for Lp(a)-fibrinogen crosslinking over a time course ranging from 30 minutes to 6 hours. Briefly, purified human fibrinogen (Calbiochem, San Diego, Calif.), at a final concentration of 100 μg/ml, was incubated with purified human Lp(a) (Enzyme Research Laboratories, South Bend, Ind.) at a final concentration of 500 μg/ml, in the presence of purified human Factor XIIIa (Enzyme Research Laboratories, South Bend, Ind.) at 30 U/ml. As controls, Factor XIIIa was either omitted from the reaction or 10 mM EDTA was added in the presence of Factor XIIIa to inhibit Factor XIIIa activity. The reactions were conducted at 37° C. in a buffer of 40 mM Tris, 0.15 M NaCl, 5 mM dithiolthreitol, and 10 mM CaC12, at pH 8.3. Factor XIII was preactivated to Factor XIIIa immediately before each experiment by incubating Factor XIII with thrombin at 3 U/ml in 40 mM Tris and 0. 15 M NaCl, at pH 8.3 for 1 hour at room temperature. The activation procedure was stopped by adding hirudin at 100 U/ml (Sigma) to inhibit the thrombin. […]
To identify the presence of Lp(a) within the immunoprecipitated complexes, samples were analyzed by western blot using an antibody to Lp(a). […]

Take `O=C(O)CN(CCN(CC(=O)O)CC(=O)O)CC(=O)O` [EDTA]: the “Lp(a) crosslinked with fibrinogen (Lp(a) in anti-fibrinogen immunoprecipitated material, western blot)” value is listed as “Lp(a) was not incorporated in the immunoprecipitated material”.
